In PubChem BioAssay (NCI):
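Cultured in 96-well plates, cells were exposed to test compound for 48 hours across five concentrations. Here, GI50 denotes the concentration required for 50% inhibition of growth. TGI is the concentration that stops growth completely.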

Key:
Experiment in all cases: growth of human tumour cells (NCI), 48 h
HOP-62 NSCLC = tested on: HOP-62 NSCLC
SF-295 CNS = tested on: SF-295 CNS
OVCAR-8 ovarian = tested on: OVCAR-8 ovarian
SF-539 CNS = tested on: SF-539 CNS
NCI/ADR-RES ovarian = tested on: NCI/ADR-RES ovarian
COLO 205 colon = tested on: COLO 205 colon
SR leukemia = tested on: SR leukemia
CCRF-CEM leukemia = tested on: CCRF-CEM leukemia
UACC-257 melanoma = tested on: UACC-257 melanoma
RXF 393 renal = tested on: RXF 393 renal
SN12C renal = tested on: SN12C renal
SW-620 colon = tested on: SW-620 colon
T-47D breast = tested on: T-47D breast
A498 renal = tested on: A498 renal
UACC-62 melanoma = tested on: UACC-62 melanoma
CAKI-1 renal = tested on: CAKI-1 renal
BT-549 breast = tested on: BT-549 breast
HS 578T breast = tested on: HS 578T breast
SNB-75 CNS = tested on: SNB-75 CNS
HCT-116 colon = tested on: HCT-116 colon
SK-MEL-28 melanoma = tested on: SK-MEL-28 melanoma
HL-60(TB) leukemia = tested on: HL-60(TB) leukemia
SF-268 CNS = tested on: SF-268 CNS
UO-31 renal = tested on: UO-31 renal
PC-3 prostate = tested on: PC-3 prostate
M14 melanoma = tested on: M14 melanoma
NCI-H226 lung = tested on: NCI-H226 lung
LOX IMVI melanoma = tested on: LOX IMVI melanoma
KM12 colon = tested on: KM12 colon

`COc1ccccc1/C=C/C=N/NC1=NC2C(S1)N(C)C(=O)N2c1ccccc1` (configuration not stated) was tested, and the GI50 (HOP-62 NSCLC) was 573 nM, the TGI (HOP-62 NSCLC) was 24700 nM and the GI50 (SF-295 CNS) was 336 nM. The TGI (SF-295 CNS) was 99200 nM, the GI50 (OVCAR-8 ovarian) was 357 nM and the TGI (OVCAR-8 ovarian) was 2230 nM. It also gave a GI50 (SF-539 CNS) of 292 nM, a TGI (SF-539 CNS) of 867 nM and a GI50 (NCI/ADR-RES ovarian) of 359 nM. It also gave a TGI (NCI/ADR-RES ovarian) greater than 100000 nM, a GI50 (COLO 205 colon) of 230 nM and a TGI (COLO 205 colon) of 487 nM. The GI50 (SR leukemia) was 343 nM, the TGI (SR leukemia) was greater than 46800 nM and the GI50 (CCRF-CEM leukemia) was 408 nM. It also gave a TGI (CCRF-CEM leukemia) greater than 78800 nM, a GI50 (UACC-257 melanoma) of 2180 nM and a TGI (UACC-257 melanoma) of 34500 nM. The GI50 (RXF 393 renal) was 312 nM, the TGI (RXF 393 renal) was 3360 nM and the GI50 (SN12C renal) was 617 nM. It also gave a TGI (SN12C renal) of 29000 nM, a GI50 (SW-620 colon) of 403 nM and a TGI (SW-620 colon) of 18900 nM. The GI50 (T-47D breast) was 4040 nM, the TGI (T-47D breast) was greater than 79300 nM and the GI50 (A498 renal) was 251 nM. For the same compound, the TGI (A498 renal) was 730 nM, the GI50 (UACC-62 melanoma) was 456 nM and the TGI (UACC-62 melanoma) was 37000 nM. For the same compound, the GI50 (CAKI-1 renal) was 562 nM, the TGI (CAKI-1 renal) was 37800 nM and the GI50 (BT-549 breast) was 264 nM. The TGI (BT-549 breast) was 653 nM, the GI50 (HS 578T breast) was 356 nM and the TGI (HS 578T breast) was 25500 nM. The GI50 (SNB-75 CNS) was 419 nM, the TGI (SNB-75 CNS) was greater than 53100 nM and the GI50 (HCT-116 colon) was 353 nM. The TGI (HCT-116 colon) was 5190 nM, the GI50 (SK-MEL-28 melanoma) was 11800 nM and the TGI (SK-MEL-28 melanoma) was 42200 nM. For the same compound, the GI50 (HL-60(TB) leukemia) was 294 nM, the TGI (HL-60(TB) leukemia) was greater than 31900 nM and the GI50 (SF-268 CNS) was 1690 nM. For the same compound, the TGI (SF-268 CNS) was 37200 nM, the GI50 (UO-31 renal) was 799 nM and the TGI (UO-31 renal) was greater than 55600 nM. It also gave a GI50 (PC-3 prostate) of 435 nM, a TGI (PC-3 prostate) of 19600 nM and a GI50 (M14 melanoma) of 333 nM. The TGI (M14 melanoma) was 2340 nM, the GI50 (NCI-H226 lung) was 572 nM and the TGI (NCI-H226 lung) was greater than 47900 nM. For the same compound, the GI50 (LOX IMVI melanoma) was 458 nM, the TGI (LOX IMVI melanoma) was 12500 nM and the GI50 (KM12 colon) was 400 nM.
